Patent US5099015A, “Trifluoromethyl 1-carba(1-dethia)cephems” (Eli Lilly and Company, priority 1991, dated 1992)
Converted amounts (≈) assume the structure as drawn. Read-outs that look alike come from different tables or passages of the source.

How the values were obtained:
Assay in all cases: Agar dilution antibacterial test (MIC)
Format in all cases: cell-based
[1] = system: Acom AC12
Procedure: (§1) Fresh overnight cultures of test bacteria were diluted to approximately 1x(10)4 cells/microliter and applied in one microliter volumes to the surfaces of the agar plates. The innoculated plates were incubated overnight at 35° C. in ambient air. Minimum inhibitory concentration (mic) endpoints were recorded as the lowest antibiotic concentrations in micrograms per milliliter that inhibited the development of visible growth on the plates. The following summarizes the results of such tests with the compounds of the examples listed above.

[2] = system: Citro CF17
Procedure: as §1

[3] = system: Enterobacter aerogenes C32
Procedure: as §1

[4] = system: Enterobacter aerogenes EB17
Procedure: as §1

[5] = system: Enterobacter cloacae 265A
Procedure: as §1

[6] = system: Enterobacter cloacae EB5
Procedure: as §1

[7] = system: Enterococcus faecalis 2041
Procedure: as §1

[8] = system: Enterococcus faecium X66
Procedure: as §1

[9] = system: Escherichia coli EC14
Procedure: as §1

[10] = system: Escherichia coli N10
Procedure: as §1

[11] = system: Escherichia coli TEM
Procedure: as §1

[12] = system: Klebsiella pneumoniae KAE
Procedure: as §1

[13] = system: Klebsiella pneumoniae X26
Procedure: as §1

[14] = system: Klebsiella pneumoniae X68
Procedure: as §1

[15] = system: Morg morg PR15
Procedure: as §1

[16] = system: Proteus incon PR33
Procedure: as §1

[17] = system: Proteus rett C24
Procedure: as §1

[18] = system: Salmonella 1335
Procedure: as §1

[19] = system: Salmonella X514
Procedure: as §1

[20] = system: Serratia SE3
Procedure: as §1

[21] = system: Serratia X99
Procedure: as §1

[22] = system: Shig sonn. N9
Procedure: as §1

[23] = system: Staphylococcus aureus NRRL X1.1
Procedure: as §1

[24] = system: Staphylococcus aureus S13E
Procedure: as §1

[25] = system: Staphylococcus aureus V41
Procedure: as §1

[26] = system: Staphylococcus aureus X400
Procedure: as §1

[27] = system: Staphylococcus epidermidis 222
Procedure: as §1

[28] = system: Staphylococcus epidermidis EPI270
Procedure: as §1

[29] = system: Staphylococcus pneumoniae Park 1
Procedure: as §1

[30] = system: Haemophilus influenzae 76
Procedure: as §1

[31] = system: Haemophilus influenzae C.L.
Procedure: as §1

[32] = system: Staphylococcus pyogenes C203
Procedure: as §1

[33] = Klebsiella aerogenes, read-out: MIC

SMILES: Nc1nc(C(=NO)C(=O)N[C@@H]2C(=O)N3C(C(=O)O)=C(C(F)(F)F)CC[C@H]23)cs1 [Compound 5]
- MIC [1]: 2 µg/mL (≈ 4.77 µM)
- MIC [2]: 16 µg/mL (≈ 38.2 µM)
- MIC [3]: .25 µg/mL (≈ 0.596 µM)
- MIC [4]: .06 µg/mL (≈ 0.143 µM)
- MIC [5]: 16 µg/mL (≈ 38.2 µM)
- MIC [6]: .125 µg/mL (≈ 0.298 µM)
- MIC [7]: 1 µg/mL (≈ 2.38 µM)
- MIC [8]: 8 µg/mL (≈ 19.1 µM)
- MIC [9]: .03 µg/mL (≈ 0.0715 µM)
- MIC [10]: .125 µg/mL (≈ 0.298 µM)
- MIC [11]: .03 µg/mL (≈ 0.0715 µM)
- MIC [12]: .06 µg/mL (≈ 0.143 µM)
- MIC [13]: .015 µg/mL (≈ 0.0358 µM)
- MIC [14]: .06 µg/mL (≈ 0.143 µM)
- MIC [15]: 2 µg/mL (≈ 4.77 µM)
- MIC [16]: .25 µg/mL (≈ 0.596 µM)
- MIC ([17]; Proteus rett C24): .125 µg/mL (≈ 0.298 µM)
- MIC [18]: .06 µg/mL (≈ 0.143 µM)
- MIC [19]: .015 µg/mL (≈ 0.0358 µM)
- MIC [20]: 8 µg/mL (≈ 19.1 µM)
- MIC [21]: .5 µg/mL (≈ 1.19 µM)
- MIC [22]: .06 µg/mL (≈ 0.143 µM)
- MIC [23]: 1 µg/mL (≈ 2.38 µM)
- MIC [24]: 4 µg/mL (≈ 9.54 µM)
- MIC [25]: 2 µg/mL (≈ 4.77 µM)
- MIC [26]: 8 µg/mL (≈ 19.1 µM)
- MIC [27]: 1 µg/mL (≈ 2.38 µM)
- MIC [28]: 4 µg/mL (≈ 9.54 µM)
- MIC [29]: .015 µg/mL (≈ 0.0358 µM)

SMILES: N[C@@H](C(=O)N[C@@H]1C(=O)N2C(C(=O)O)=C(C(F)(F)F)CC[C@H]12)c1cccc(Br)c1 [Compound 7]
- MIC ([2]; read-out: MIC): 32 µg/mL (≈ 69.2 µM)
- MIC [3, 33]: 16 µg/mL (≈ 34.6 µM)
- MIC [4, 33]: 32 µg/mL (≈ 69.2 µM)
- MIC ([5]; read-out: MIC): 64 µg/mL (≈ 138 µM)
- MIC ([6]; read-out: MIC): 64 µg/mL (≈ 138 µM)
- MIC ([7]; read-out: MIC): 8 µg/mL (≈ 17.3 µM)
- MIC ([8]; read-out: MIC): 16 µg/mL (≈ 34.6 µM)
- MIC ([9]; read-out: MIC): 4 µg/mL (≈ 8.65 µM)
- MIC ([10]; read-out: MIC): 8 µg/mL (≈ 17.3 µM)
- MIC ([11]; read-out: MIC): 4 µg/mL (≈ 8.65 µM)
- MIC ([30]; read-out: MIC): 1 µg/mL (≈ 2.16 µM)
- MIC ([31]; read-out: MIC): 0.5 µg/mL (≈ 1.08 µM)
- MIC ([12]; read-out: MIC): 16 µg/mL (≈ 34.6 µM)
- MIC ([13]; read-out: MIC): 0.25 µg/mL (≈ 0.541 µM)
- MIC ([14]; read-out: MIC): 4 µg/mL (≈ 8.65 µM)
- MIC ([15]; read-out: MIC): 16 µg/mL (≈ 34.6 µM)
- MIC ([16]; read-out: MIC): 8 µg/mL (≈ 17.3 µM)
- MIC [17]: 128 µg/mL (≈ 277 µM)
- MIC ([18]; read-out: MIC): 16 µg/mL (≈ 34.6 µM)
- MIC ([19]; read-out: MIC): 4 µg/mL (≈ 8.65 µM)
- MIC [20]: > 128 µg/mL
- MIC ([21]; read-out: MIC): 64 µg/mL (≈ 138 µM)
- MIC ([23]; NRRLX1.1, read-out: MIC): 1 µg/mL (≈ 2.16 µM)
- MIC [24]: 8 µg/mL (≈ 17.3 µM)
- MIC ([25]; read-out: MIC): 4 µg/mL (≈ 8.65 µM)
- MIC ([26]; read-out: MIC): 16 µg/mL (≈ 34.6 µM)
- MIC ([27]; read-out: MIC): 1 µg/mL (≈ 2.16 µM)
- MIC ([28]; read-out: MIC): 1 µg/mL (≈ 2.16 µM)
- MIC ([29]; PARK1, read-out: MIC): 0.125 µg/mL (≈ 0.27 µM)
- MIC ([32]; read-out: MIC): 0.125 µg/mL (≈ 0.27 µM)

SMILES: N[C@@H](C(=O)N[C@@H]1C(=O)N2C(C(=O)O)=C(C(F)(F)F)CC[C@H]12)c1cccc(F)c1 [Compound 8]
- MIC ([2]; read-out: MIC): 16 µg/mL (≈ 39.9 µM)
- MIC [3, 33]: 16 µg/mL (≈ 39.9 µM)
- MIC [4, 33]: 8 µg/mL (≈ 19.9 µM)
- MIC ([5]; read-out: MIC): 32 µg/mL (≈ 79.7 µM)
- MIC ([6]; read-out: MIC): 16 µg/mL (≈ 39.9 µM)
- MIC ([7]; read-out: MIC): 32 µg/mL (≈ 79.7 µM)
- MIC ([8]; read-out: MIC): 64 µg/mL (≈ 159 µM)
- MIC ([9]; read-out: MIC): 4 µg/mL (≈ 9.97 µM)
- MIC ([10]; read-out: MIC): 4 µg/mL (≈ 9.97 µM)
- MIC ([11]; read-out: MIC): 2 µg/mL (≈ 4.98 µM)
- MIC ([30]; read-out: MIC): 2 µg/mL (≈ 4.98 µM)
- MIC ([31]; read-out: MIC): 2 µg/mL (≈ 4.98 µM)
- MIC ([12]; read-out: MIC): 16 µg/mL (≈ 39.9 µM)
- MIC ([13]; read-out: MIC): 2 µg/mL (≈ 4.98 µM)
- MIC ([14]; read-out: MIC): 2 µg/mL (≈ 4.98 µM)
- MIC ([15]; read-out: MIC): 32 µg/mL (≈ 79.7 µM)
- MIC ([16]; read-out: MIC): 16 µg/mL (≈ 39.9 µM)
- MIC ([17]; Proteus rett C24, read-out: MIC): 16 µg/mL (≈ 39.9 µM)
- MIC ([18]; read-out: MIC): 4 µg/mL (≈ 9.97 µM)
- MIC ([19]; read-out: MIC): 2 µg/mL (≈ 4.98 µM)
- MIC ([20]; read-out: MIC): 64 µg/mL (≈ 159 µM)
- MIC ([21]; read-out: MIC): 32 µg/mL (≈ 79.7 µM)
- MIC ([22]; read-out: MIC): 2 µg/mL (≈ 4.98 µM)
- MIC ([23]; NRRLX1.1, read-out: MIC): 2 µg/mL (≈ 4.98 µM)
- MIC [24]: 32 µg/mL (≈ 79.7 µM)
- MIC ([25]; read-out: MIC): 16 µg/mL (≈ 39.9 µM)
- MIC ([26]; read-out: MIC): 64 µg/mL (≈ 159 µM)
- MIC ([27]; read-out: MIC): 4 µg/mL (≈ 9.97 µM)
- MIC ([28]; read-out: MIC): 4 µg/mL (≈ 9.97 µM)
- MIC ([29]; PARK1, read-out: MIC): 0.25 µg/mL (≈ 0.623 µM)
- MIC ([32]; read-out: MIC): 0.06 µg/mL (≈ 0.15 µM)

SMILES: NC(C(=O)N[C@@H]1C(=O)N2C(C(=O)O)=C(C(F)(F)F)CC[C@H]12)c1cccc(C(F)(F)F)c1 (stereo partly drawn) [Compound 9, [6R,7S]-7-β-[D-α-(amino)-3-trifluoromethylphenylacetylamino]-3-trifluoromethyl-1-carba-1-carba-1-dethia3-cephem-4-carboxylic acid]
- MIC [1]: 32 µg/mL (≈ 70.9 µM)
- MIC [2]: 128 µg/mL (≈ 284 µM)
- MIC [3]: 128 µg/mL (≈ 284 µM)
- MIC [4]: 128 µg/mL (≈ 284 µM)
- MIC [5]: 128 µg/mL (≈ 284 µM)
- MIC [6]: 4 µg/mL (≈ 8.86 µM)
- MIC [7]: 16 µg/mL (≈ 35.5 µM)
- MIC [8]: 32 µg/mL (≈ 70.9 µM)
- MIC [9]: 8 µg/mL (≈ 17.7 µM)
- MIC [10]: 32 µg/mL (≈ 70.9 µM)
- MIC [11]: 16 µg/mL (≈ 35.5 µM)
- MIC [30]: 1 µg/mL (≈ 2.22 µM)
- MIC [31]: 1 µg/mL (≈ 2.22 µM)
- MIC [12]: 64 µg/mL (≈ 142 µM)
- MIC [13]: 1 µg/mL (≈ 2.22 µM)
- MIC [14]: 16 µg/mL (≈ 35.5 µM)
- MIC [15]: 32 µg/mL (≈ 70.9 µM)
- MIC [16]: 32 µg/mL (≈ 70.9 µM)
- MIC ([17]; Proteus rett C24): 64 µg/mL (≈ 142 µM)
- MIC [18]: 64 µg/mL (≈ 142 µM)
- MIC [19]: 32 µg/mL (≈ 70.9 µM)
- MIC [20]: > 128 µg/mL
- MIC [21]: 128 µg/mL (≈ 284 µM)
- MIC [23]: 2 µg/mL (≈ 4.43 µM)
- MIC [24]: 16 µg/mL (≈ 35.5 µM)
- MIC [25]: 4 µg/mL (≈ 8.86 µM)
- MIC [26]: 16 µg/mL (≈ 35.5 µM)
- MIC [27]: 1 µg/mL (≈ 2.22 µM)
- MIC [28]: 4 µg/mL (≈ 8.86 µM)
- MIC [29]: .125 µg/mL (≈ 0.277 µM)
- MIC [32]: 6 µg/mL (≈ 13.3 µM)
